pIC50: −log10 of the molar value. Where “and” joins values, the source holds several entries; their conditions need not be identical. Equal entries are not always repeated.
System: 454973-116-R2-J3-PDC complex spheroid viability
Assay: Anticancer human tumor 454973-116-R2-J3-PDC patient-derived pancreatic carcinoma cell line growth inhibition [POLQ]
Settings: for viability, T/C: stronger effect = lower value
Method: Multicellular complex tumor spheroid response to Polymerase (POL) inhibitors (novobiocin, ART-558, RP6685) in combination with a variety of drugs and investigational agents in selected tumor cell lines
The POL inhibitors (novobiocin, ART-558, and RP6685) were evaluated both individually and in combination with standard of care and investigational anticancer small molecules within a complex spheroid model of solid tumors. . Complex spheroids include a stromal component modeled by human endothelial cells (HUVEC) and fibroblasts modeled by human mesenchymal stem cells (MSCs). The concentration ranges selected for each drug and investigational agent were based upon clinically achievable concentrations if the clinical Cmax of the agent was known.
Compounds. The drugs and investigational agents: novobiocin (NSC847541), ART-558 (NSC835418), RP-6685 (NSC848927), peposertib (NSC802822), ceralasertib (NSC780249), elimusertib (NSC800525), camonsertib (NSC841442), AZD-1390 (NSC803789), olaparib (NSC753686), talazoparib (NSC767125), rucaparib (NSC756644), sotorasib (NSC818433), MRTX-1133 (NSC836407), SN-38 (NSC673596), topotecan (NSC609699), epotoside (NSC141540), doxorubicin (NSC123127), gemcitabine (NSC613327), 5-fluorouracil (NSC19893), paclitaxel (NSC125973), vemurafenib (NSC761431), MSA-2 (NSC828583), SN-011 (NSC837082), adavosertib (NSC754352), prexasertib (NSC758257), carboplatin (NSC241240) and oxaliplatin (NSC266046), were obtained from the National Cancer Institute (NCI) Developmental Therapeutics Program Chemical Repository (21). The FDA-approved anticancer drug set is available from the Developmental Therapeutics Program at https://dtp.cancer.gov/organization/dscb/obtaining/. […] The stock solutions were prepared in dimethyl sulfoxide (DMSO, Sigma-Aldrich, St. Louis, MO, cat. D2650), except for the platinum compounds which were prepared in saline (Quality Biological, Gaithersburg, MD, cat. 114-055-101), at 800-fold the tested concentration and stored at -70 degrees C prior to their use. All drugs and investigational agents were tested over a range starting from a high concentration at or near the clinical Cmax and decreasing in half-log increments. If the clinical Cmax for an agent had not been determined, the highest concentration tested was 10 microM, except for SN-38, which was tested at a high concentration of 1 microM.
Cell Culture. All cells were maintained in an incubator at 37 degrees C and 5% CO2 with 95% humidity. The PDC lines were cultured according to standard operating procedures established by the NCI PDMR (https://pdmr.cancer.gov). Table 3 of the manuscript, lists the cell lines along with the number of the three cell types plated to form the mct-spheroids and media for tumor cell growth. After thawing, all PDC lines, except 997537-175-T-J1-PDC and 415267-285-R-J2-PDC, were cultured in Matrigel-coated flasks prepared with a working solution of 1X Ham's F-12 nutrient mix, without supplementation (Thermo Fisher Scientific, cat. 11765054), 100 U/mL penicillin-streptomycin (Thermo Fisher Scientific, cat. 15140122), and 2.5% Matrigel (Corning Inc., Corning, NY, cat. 354248) for the first three passages. The two PDC lines 997537-175-T-J1-PDC and 415267-285-R-J2-PDC were cultured on uncoated flasks. The 857933-349-R-J2-PDC line was cultured in 6C/Colon 1B media containing advanced DMEM/F-12 (Thermo Fisher Scientific, cat. 12634028), 10 mM HEPES (Thermo Fisher Scientific, cat. 15630080), 1X GlutaMAX supplement (Thermo Fisher Scientific, cat. 35050061), 0.1 mg/mL primocin (InvivoGen, San Diego, CA, cat. ant-pm-2), 10% defined fetal bovine serum, heat inactivated (HyClone Laboratories Inc., Logan, UT, cat. SH30070.03HI), 50% L-WRN conditioned media (ATCC, cat. CRL-3276), 1.25 mM N-Acetyl-L-cysteine (Sigma-Aldrich, cat. A9165), 10 mM nicotinamide (Sigma-Aldrich, cat. N0636), 1X B-27 supplement (Thermo Fisher Scientific, cat. 17504044), 1X N-2 supplement (Thermo Fisher Scientific, cat. […]
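Further: spheroids exposed to drugs for seven days before measurement.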
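Wherever viability, T/C is given: percent viability relative to DMSO vehicle control wells taken as 100%.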

## O=C(c1cc(Cc2n[nH]c(=O)c3ccccc23)ccc1F)N1CCN(C(=O)C2CC2)CC1
Compound 0.0316 µM
  viability, T/C: 105% and 99.8% and 97.1%
Compound 0.1 µM
  viability, T/C: 96.5% and 99% and 104%
Compound 0.316 µM
  viability, T/C: 101%
Compound 1 µM
  viability, T/C: 91.2% and 104% and 90.5%
Compound 3.16 µM
  viability, T/C: 104% and 102% and 95.3%
Compound 10 µM
  viability, T/C: 60.6% and 62.5% and 54.9%
Curve of compound
  pIC50: < 5.00

## C#Cc1c(F)ccc2cc(O)cc(-c3ncc4c(N5CC6CCC(C5)N6)nc(OCC56CCCN5CC(F)C6)nc4c3F)c12 (stereo not drawn)
Compound 0.0316 µM
  viability, T/C: 57.4% and 52.2% and 68.6%
Compound 0.1 µM
  viability, T/C: 44.5% and 37.2% and 52.2%
Compound 0.316 µM
  viability, T/C: 32.2% and 26% and 35.8%
Compound 1 µM
  viability, T/C: 28.6% and 24.5% and 29.1%
Compound 3.16 µM
  viability, T/C: 23.6% and 21.5% and 29.5%
Compound 10 µM
  viability, T/C: 21.4% and 19.2% and 26.2%
Curve of compound
  pIC50: 7.23 and 7.43 and 6.93

## CC1COCCN1c1cc(C2(O)CC3CCC(C2)O3)c2cnn(-c3ccn[nH]3)c2n1 (stereo not drawn) + Nc1ccc(C#CCN(C(=O)Cc2ncc(C(F)(F)F)cc2C(F)(F)F)c2ccc(F)cc2)nn1
Curve of first compound, second compound 0.0316 µM
  pIC50: 6.92
Curve of first compound, second compound 0.1 µM
  pIC50: 6.94
Curve of first compound, second compound 0.316 µM
  pIC50: 7.06
Curve of first compound, second compound 1 µM
  pIC50: 7.02
Curve of first compound, second compound 3.16 µM
  pIC50: 6.98
Curve of first compound, second compound 10 µM
  pIC50: 6.97
Second compound 0.0316 µM, first compound 0.0316 µM
  viability, T/C: 83.7%
Second compound 0.0316 µM, first compound 0.1 µM
  viability, T/C: 55.6%
Second compound 0.0316 µM, first compound 0.316 µM
  viability, T/C: 21%
Second compound 0.0316 µM, first compound 1 µM
  viability, T/C: 12.5%
Second compound 0.0316 µM, first compound 3.16 µM
  viability, T/C: 16.3%
Second compound 0.0316 µM, first compound 10 µM
  viability, T/C: 10.3%
Second compound 0.1 µM, first compound 0.0316 µM
  viability, T/C: 84.1%
Second compound 0.1 µM, first compound 0.1 µM
  viability, T/C: 54%
Second compound 0.1 µM, first compound 0.316 µM
  viability, T/C: 19.8%
Second compound 0.1 µM, first compound 1 µM
  viability, T/C: 12.3%
Second compound 0.1 µM, first compound 3.16 µM
  viability, T/C: 15.2%
Second compound 0.1 µM, first compound 10 µM
  viability, T/C: 13%
Second compound 0.316 µM, first compound 0.0316 µM
  viability, T/C: 87.1%
Second compound 0.316 µM, first compound 0.1 µM
  viability, T/C: 44.8%
Second compound 0.316 µM, first compound 0.316 µM
  viability, T/C: 18.7%
Second compound 0.316 µM, first compound 1 µM
  viability, T/C: 11.5%
Second compound 0.316 µM, first compound 3.16 µM
  viability, T/C: 14.3%
Second compound 0.316 µM, first compound 10 µM
  viability, T/C: 11.2%
Second compound 1 µM, first compound 0.0316 µM
  viability, T/C: 80.4%
Second compound 1 µM, first compound 0.1 µM
  viability, T/C: 48.6%
Second compound 1 µM, first compound 0.316 µM
  viability, T/C: 15.4%
Second compound 1 µM, first compound 1 µM
  viability, T/C: 11%
Second compound 1 µM, first compound 3.16 µM
  viability, T/C: 13.4%
Second compound 1 µM, first compound 10 µM
  viability, T/C: 11.7%
Second compound 3.16 µM, first compound 0.0316 µM
  viability, T/C: 88.1%
Second compound 3.16 µM, first compound 0.1 µM
  viability, T/C: 51.1%
Second compound 3.16 µM, first compound 0.316 µM
  viability, T/C: 20.9%
Second compound 3.16 µM, first compound 1 µM
  viability, T/C: 10.7%
Second compound 3.16 µM, first compound 3.16 µM
  viability, T/C: 15.2%
Second compound 3.16 µM, first compound 10 µM
  viability, T/C: 10.3%
Second compound 10 µM, first compound 0.0316 µM
  viability, T/C: 91.6%
Second compound 10 µM, first compound 0.1 µM
  viability, T/C: 52.4%
Second compound 10 µM, first compound 0.316 µM
  viability, T/C: 14.7%
Second compound 10 µM, first compound 1 µM
  viability, T/C: 9.37%
Second compound 10 µM, first compound 3.16 µM
  viability, T/C: 11.2%
Second compound 10 µM, first compound 10 µM
  viability, T/C: 10.2%

## C=CC(=O)N1CCN(c2nc(=O)n(-c3c(C)ccnc3C(C)C)c3nc(-c4c(O)cccc4F)c(F)cc23)C(C)C1 (stereo not drawn)
Compound 0.0316 µM
  viability, T/C: 109% (2×) and 106%
Compound 0.1 µM
  viability, T/C: 97% and 98.6% and 100%
Compound 0.316 µM
  viability, T/C: 105% and 112% and 106%
Compound 1 µM
  viability, T/C: 104% and 113% and 107%
Compound 3.16 µM
  viability, T/C: 108% and 104% and 114%
Compound 10 µM
  viability, T/C: 107% and 113% and 112%
Curve of compound
  pIC50: < 5.00

— PubChem BioAssay AID1963846 (Molecular Pharmacology Branch, DTP, NCI, 2024)
